{"source": "patent US12208105B2", "about": "“Methods for attenuating graft-versus-host disease and opportunistic infections” (priority 2018, dated 2025)", "key": {"[1]": {"system": "CCR7-/- B6 into BALB/c aGVHD model", "assay": "aGVHD induced with CCR7-/- B6 Tcons into BALB/c", "method": "(A, B) BALB/c mice were lethally irradiated on transplant day −1. On day 0 recipients were administered 5×10^6 TCD B6 BM cells +/−3×10^6 CCR7^−/− B6 Tcons. Donor Tcons were incubated ex vivo with DMSO vehicle or cosalane diluted in normal saline at 15 μg/ml. The cells were then mixed with untreated TCD B6 BM cells and administered immediately to recipient mice by tail vein injection. Mice were then followed for survival and scored for aGVHD. N=2 BM only. N=6 for all other treatment groups. […] (C, D) BALB/c mice were transplanted as in A, B. Donor CCR7^−/− B6 Tcons, however, were incubated ex vivo with DMSO vehicle or cosalane diluted in normal saline at 30 μg/ml. N=2 BM only. N=9 for all other treatment groups.\nAs a result, we repeated our CCR7^−/− B6 into BALB/c transplant but pre-incubated the donor Tcons with an identical cosalane strength of 30 μg/ml."}, "B6 into B6D2 aGVHD model [2]": {"system": "B6 into B6D2 aGVHD model", "assay": "aGVHD, B6 into B6D2 transplant, cosalane dosed systemically", "format": "in vivo, mouse", "protocol": "Transplantation Procedures: Recipient mice were irradiated on transplant day −1. Recipients were then administered T cell depleted (TCD) bone marrow cells +/−CD25^− column-purified conventional T cells (Tcons) to induce aGVHD as previously described (Wysocki et al., J. Immunol. 173:845 (2004); Carlson et al., Blood 113:1365 (2009)). Tcons consisted of CD4^+ and CD8^+ T cells in a 1:1 ratio. For ex-vivo cosalane incubations, cell populations were suspended in serum/protein free injectable saline unless otherwise indicated. […] The cells were then administered immediately to recipients by tail vein injection."}, "[3]": {"system": "murine cytomegalovirus (mCMV)", "assay": "Murine cytomegalovirus plaque assay on 3T3 fibroblasts", "format": "cell-based"}, "[4]": {"system": "herpes simplex 1 and 2 and human cytomegalovirus", "details": "cited from earlier work"}, "B6 into B6D2 aGVHD model [5]": {"system": "B6 into B6D2 aGVHD model"}, "[6]": {"system": "P815 murine mastocytoma cells", "assay": "P815 graft-versus-leukemia model with in vivo imaging", "method": "B6D2 mice were lethally irradiated on transplant day −1. On day 0 recipients were administered 3×10^6 TCD B6 BM cells and 2.5×10^4 luciferase^+ P815 murine mastocytoma cells (H-2^d)+/−4×10^6 B6 Tcons. Donor Tcons were incubated ex vivo with DMSO vehicle or cosalane diluted in normal saline at 15 μg/ml. The cells were then mixed with untreated BM/tumor cells and administered immediately to recipient mice by tail vein injection. Mice were then serially imaged twice weekly following the intraperitoneal injection of luciferin. […] Recipient mortality was attributed to tumor versus aGVHD based on the tumor burden by imaging and clinical aGVHD scores at the time of death. Exposure time=4 seconds for all panels. N=5 per treatment group.\nB6D2 mice were lethally irradiated on transplant day −1. On day 0 recipients were administered 3×10^6 TCD B6 BM cells and 2.5×10^4 luciferase^+ P815 murine mastocytoma cells. Some recipients also received 2×10^6 DMSO treated B6 Tcons or 4×10^6 cosalane treated B6 Tcons (15 μg/ml). Mice were then serially imaged twice weekly following the intraperitoneal injection of luciferin. […] Exposure time=4 seconds for all panels. The “mixed” cage on the far right contained one mouse each of the BM/P815 only, BM/P815 plus DMSO Tcons, and BM/P815 plus cosalane Tcons groups. N=6 per treatment group.\nP815 graft-versus-leukemia model and in vivo imaging: Luciferase transfected P815 murine mastocytoma cells (H-2^d) were a kind gift from the laboratory of Dr. Jonathan Serody. P815 cells were cultured and then mixed with TCD bone marrow cells prior to transplantation. A tumor dose of 2.5×10^4 P815 cells was used for all experiments. Recipients were then serially imaged using an IVIS Kinetic Optical real-time imaging system to monitor for in vivo tumor growth twice weekly. For imaging, recipients were dosed with 3 mg of D-luciferin (Perkin Elmer) by intraperitoneal injection 10 minutes prior to the procedure. Mice were then anesthetized with isoflurane during image acquisition. Unless otherwise indicated an exposure time of 4 seconds was used for all images.\nAs a result, we evaluated cosalane's effects on GVL immunity using a well described P815 murine mastoma (H-2^d) leukemia model. Here, B6D2 mice were lethally irradiated and then administered 3×10^6 TCD B6 bone marrow cells containing 25,000 luciferase transfected P815 cells +/−4×10^6 B6 Tcons to drive a GVL response. One half of those mice receiving BM/Tumor plus Tcons were administered Tcons incubated with DMSO and the other one half received cosalane treated Tcons. Recipients were subsequently evaluated by serial in vivo imaging in order to monitor tumor growth in each treatment group. […]"}, "B6 Tcons": {"system": "B6 Tcons", "assay": "Tcon proliferation assay", "method": "(A) B6 Tcons were purified and incubated with increasing concentrations of cosalane or equal volumes of DMSO vehicle in normal saline for one hour at 37° C. The cells were then washed and cultured on 24 well plates pre-coated with anti-CD3 and anti-CD28 antibody in the presence of supplemental IL-2 for 72 hours. The number of cells per well were then quantified.\nTcon proliferation assay: Purified CD25^− B6 Tcons were incubated with cosalane at the indicated concentrations or an equal volume of DMSO vehicle for one hour at 37° C. The cells were then washed and cultured on 24-well plates previously incubated overnight with anti-CD3 and anti-CD28 antibody at 10 μg/ml. The cells were cultured for 72 hours in complete media supplemented with murine interleukin-2 at 100 IUs/ml and then counted using a hemacytometer.\nPurified B6 Tcons were isolated as before and incubated with cosalane at increasing concentrations ranging from 10 μg/ml (13 μM—the concentration used for the B6 into B6D2 survival experiment described in FIGS. 3D and 3E) to 30 μg/ml (39 μM) or an equal volume of DMSO diluted in normal saline. The cells were then washed, placed on 24 well plates pre-coated with anti-CD3 and anti-CD28 immunoglobulin, and cultured for 72 hours in media containing supplemental IL-2."}, "Murine CCR7": {"molecular_target": "T1, Murine CCR7 (Mus musculus, UniProt P47774)", "T1 sequence (P47774 25-378)": "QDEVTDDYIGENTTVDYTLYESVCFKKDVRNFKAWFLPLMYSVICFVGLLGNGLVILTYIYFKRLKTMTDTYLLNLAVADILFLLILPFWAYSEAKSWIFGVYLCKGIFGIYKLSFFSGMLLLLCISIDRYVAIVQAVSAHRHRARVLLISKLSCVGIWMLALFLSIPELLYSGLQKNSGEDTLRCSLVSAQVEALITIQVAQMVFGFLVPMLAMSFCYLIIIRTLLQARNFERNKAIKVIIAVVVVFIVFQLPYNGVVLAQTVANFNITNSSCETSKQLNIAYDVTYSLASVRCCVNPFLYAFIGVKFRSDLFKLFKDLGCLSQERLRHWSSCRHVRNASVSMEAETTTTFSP", "assay": "HTS primary reporter assay, murine CCR7", "format": "cell-based"}, "CCR7": {"molecular_target": "T2, CCR7 (Homo sapiens, UniProt P32248)", "T2 sequence (P32248 25-378)": "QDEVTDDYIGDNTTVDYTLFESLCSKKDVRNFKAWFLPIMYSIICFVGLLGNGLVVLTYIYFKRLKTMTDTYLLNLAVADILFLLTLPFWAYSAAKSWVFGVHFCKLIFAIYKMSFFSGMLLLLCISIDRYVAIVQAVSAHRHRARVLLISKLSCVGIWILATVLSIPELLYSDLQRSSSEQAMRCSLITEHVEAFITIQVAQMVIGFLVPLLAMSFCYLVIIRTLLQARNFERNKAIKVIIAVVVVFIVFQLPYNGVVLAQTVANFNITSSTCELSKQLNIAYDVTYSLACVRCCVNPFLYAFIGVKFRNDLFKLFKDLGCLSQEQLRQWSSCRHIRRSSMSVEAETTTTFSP", "details": "cited from earlier work"}, "[7]": {"details": "BM plus Tcons incubated 15 μg/ml"}, "[8]": {"details": "Tcons incubated 10 μg/ml (13 μM) in saline alone, one hour"}, "[9]": {"details": "4×10^6 Tcons incubated 15 μg/ml"}, "[10]": {"details": "4×10^6 cosalane treated Tcons vs 2×10^6 DMSO Tcons"}}, "note": "pIC50: −log10 of the molar value. Read-outs that look alike come from different tables or passages of the source.", "data": [{"compound": "CC(C)CCC[C@@H](C)[C@H]1CC[C@H]2[C@@H]3CC[C@H]4C[C@@H](CCC=C(c5cc(Cl)c(O)c(C(=O)O)c5)c5cc(Cl)c(O)c(C(=O)O)c5)CC[C@]4(C)[C@H]3CC[C@]12C", "note": "[Cosalane, cosalane]", "values": [{"measurement": "aGVHD with CCR7-/- donor Tcons", "setting": "[1]; Tcons incubated 15 μg/ml", "value": "completely inactive"}, {"measurement": "aGVHD scores with CCR7-/- donor Tcons", "setting": "[1]; Tcons incubated 30 μg/ml", "value": "trend for lower aGVHD scores"}, {"measurement": "survival times with CCR7-/- donor Tcons", "setting": "[1]; Tcons incubated 30 μg/ml", "value": "longer survival times"}, {"measurement": "aGVHD (survival and scores) with systemic dosing", "setting": "B6 into B6D2 aGVHD model [2]; 10 mg/kg intravenous, day 0, +3, +6", "value": "did not attenuate aGVHD and may have actually worsened clinical outcomes"}, {"measurement": "dosages much better tolerated by irradiated recipients", "setting": "B6 into B6D2 aGVHD model [2]; irradiated recipients, 10 mg/kg excessively high", "value": "0.5 to 2", "unit": "mg/kg"}, {"measurement": "mCMV plaque number / activity, compound in infectivity media", "setting": "[3]; 15 μg/ml throughout infection, MOI 0.05 and 0.005, vs DMSO", "value": "significantly reduced plaque number"}, {"measurement": "mCMV visible cytopathic effect, isolated pretreatment of 3T3 cells", "setting": "[3]; pretreatment only", "value": "virtually no effect"}, {"measurement": "viral cytopathic effect induced by herpes viruses", "setting": "[4]", "value": "block viral cytopathic effect"}, {"measurement": "recipients surviving to the end of the study period, combined treatment", "setting": "B6 into B6D2 aGVHD model [5]; BM cells and Tcons incubated 15 μg/ml", "value": 100, "unit": "%"}, {"measurement": "delayed bone marrow failure", "setting": "B6 into B6D2 aGVHD model [5]; [7]", "value": "no clinical signs of delayed bone marrow failure"}, {"measurement": "group surviving to the end of the study observation period", "setting": "B6 into B6D2 aGVHD model [5]; [7]", "value": 90, "unit": "%"}, {"measurement": "aGVHD scores", "setting": "B6 into B6D2 aGVHD model [5]; [8]", "value": "reduced aGVHD scores"}, {"measurement": "median survival times", "setting": "B6 into B6D2 aGVHD model [5]; [8]", "value": "improved median survival times"}, {"measurement": "aGVHD", "setting": "B6 into B6D2 aGVHD model [5]; Tcons incubated 10 μg/ml in saline plus 1% albumin", "value": "developed severe aGVHD similar to DMSO controls"}, {"measurement": "survival, isolated treatment of donor Tcons", "setting": "B6 into B6D2 aGVHD model [5]; Tcons incubated 15 μg/ml, BM DMSO", "value": 100, "unit": "%"}, {"measurement": "transplant outcomes, dose dependence", "setting": "B6 into B6D2 aGVHD model [5]; Tcons incubated 10, 20 or 30 μg/ml", "value": "improved transplant outcomes with increasing dosages"}, {"measurement": "aGVHD attenuation, whole stem product treated", "setting": "B6 into B6D2 aGVHD model [5]; mouse, in vivo", "value": "attenuate aGVHD at least as well as what was observed previously with the isolated treatment of Tcons alone"}, {"measurement": "outcomes, isolated treatment of donor BM cells alone", "setting": "B6 into B6D2 aGVHD model [5]; mouse, in vivo", "value": "did not significantly improve outcomes"}, {"measurement": "overall survival times", "setting": "[6]; [9]", "value": "longest overall survival times"}, {"measurement": "tumor growth", "setting": "[6]; [9]", "value": "substantial suppression of tumor growth"}, {"measurement": "mice died of aGVHD", "setting": "[6]; [10]", "value": "3/6"}, {"measurement": "mice succumbed to malignancy", "setting": "[6]; [10]", "value": "none succumbed to malignancy"}, {"measurement": "Tcon cell numbers after culture", "setting": "B6 Tcons; 10 μg/ml (13 μM) to 30 μg/ml (39 μM), one hour, washed, 72 hours anti-CD3/anti-CD28/IL-2", "value": "no differences in cell numbers"}, {"measurement": "cytotoxicity in vitro", "setting": "B6 Tcons; doses up to 39 μM", "value": "did not induce any apparent cytotoxicity"}, {"measurement": "pIC50", "setting": "Murine CCR7; ligand CCL19, read-out: Murine CCR7 IC50 To CCL19", "value": 6.71}, {"measurement": "pIC50", "setting": "Murine CCR7; ligand CCL21, read-out: Murine CCR7 IC50 To CCL21", "value": 5.70}, {"measurement": "activity against CCL19 versus CCL21", "setting": "CCR7", "value": "approximately 10 fold"}]}]}
